Molecules are shown by their SMILES. Some results are limits rather than exact numbers.

Results on one compound are retold here after patent US20200046720A1, “ENGINEERED BIOCOMPATIBLE ANTIBIOTIC PARTICLES AND THEIR USE AGAINST URINARY TRACT INFECTION” (The University of North Carolina at Chapel Hill, priority 2016, published 2020).

In assay [1] the test system is E. coli UT189. As to the kind of experiment: Tissue culture-based microbial inhibition assay, intracellular E. coli infection of bladder epithelial cells. Format: cell-based, Escherichia coli. As to conditions: cultured bladder epithelial cells. The protocol: FIGS. 3A-D show PRINT-Levofloxacin provides prolonged protection against intracellular E. coli infection. UROTSA bladder epithelial cell monolayers were incubated with media, free levofloxacin (FREE LEVO), blank PRINT particles (BLANK PRINT), or a formulation of PRINT encapsulated levofloxacin (PRINT-LEVO) for 1 hour. Each treatment was removed, the cells were washed, and the cells were immediately infected with E. coli UT189 (FIG. 3A), 8 hours later (FIG. 3B), or 18 hours later (FIG. 3C). After 1 hour of infection with E. coli, the medium was replaced with medium containing gentamicin to eliminate extracellular bacteria. Viable bacteria in the bladder epithelial cells were enumerated 24 hours later. The formulations and associated sizes and charges are shown for reference (FIG. 3D). Tissue culture-based microbial inhibition assays-Bladder epithelial cell lines 5637 and UROTSA have been previously described. Tissue culture cells were growth in RPMI 1640 media to 80% confluence and lifted using trypsin-EDTA (Sigma-Aldrich). Twenty four well plates (Genesee Scientific) were seeded with 5637 cells and grown for 2 days at 37° C., 5% CO2 prior to infections. Where appropriate to the assay conditions, unencapsulated (“free”) levofloxacin was added to the wells one hour prior to infection and at the same concentration as wells treated with PRINT-levofloxacin particles. […]

Assay [2] deals with E. coli UT189. Put plainly: Rat spinal cord injury UTI infection model. Format: in vivo, Escherichia coli. As to conditions: female SCI rats, single intracystic dose, drained after 1 hour, infected 8 hours later, bladder and kidney. The protocol: FIGS. 6A-C show PRINT-LEVO provides sustained protection against E. coli UTI in the SCI rat. Female SCI rats were treated by transurethral catheterization and instillation of a volume equivalent to their previously determined residual urine volume containing PBS, PBS with free levofloxacin (5 μg/ml), PRINT-LEVO (formula D5), or BLANK PRINT particles (wt/vol equivalent to PRINT-LEVO). After 1 hour of treatment, all animals had their bladder creded to remove each treatment. The animals were infected with E. coli at increasing time intervals following the administration and drainage of the test or control agents from the bladder: 4 hours (FIG. 6A), 8 hours (FIG. 6B), or 18 hours (FIG. 6C). Bacteria were counted in the bladders and kidneys 24 hours after infection with E. coli by tissue homogenization and plating of dilutions on solid agar medium. Horizontal bars indicate the geometric means.
As described previously, female Sprague-Dawley rats (Harlan; 175-200 gm) underwent controlled surgical T10 spinal cord transection to model spinal cord injury and produce a neurogenic bladder phenotype. […] Due to the spinal cord injury and subsequent neurogenic bladder phenotypes, animals were routinely monitored and creded to relieve urinary retention each 12 hours. […]

In the case of `C[C@H]1COc2c(N3CCN(C)CC3)c(F)cc3c(=O)c(C(=O)O)cn1c23` [free levofloxacin, levofloxacin], in the assay on E. coli UT189 [1], the “time to loss of significant effectiveness after a single dose” value is no more than 1 h. In the assay on E. coli UT189 [2], the “protection against E. coli infection (animals infection-free), 8 hour delay” value is 12.5%.
